Source: patent US7888359B2, “Cyclohexyl or piperidinyl carboxamide antibiotic derivatives” (Actelion Pharmaceutical Ltd., priority 2006, dated 2011)
Converted amounts (≈) assume the structure as drawn.

Experiments:
Assay type in all cases: cell-based
[1] = system: S. aureus A798; assay: MIC by microdilution (NCCLS) against S. aureus A798; conditions: pH 7.2-7.3; for MIC: Staphylococcus aureus, A798, cation-adjusted Mueller-Hinton Broth
Experimental: (§1) These assays have been performed following the description given in “Methods for dilution Antimicrobial Susceptibility Tests for Bacteria that Grow Aerobically, 4th ed.; Approved standard: NCCLS Document M7-A4; National Committee for Clinical Laboratory Standards Villanova, Pa., USA, 1997”. Minimal inhibitory concentrations (MICs; mg/L) were determined in cation-adjusted Mueller-Hinton Broth (BBL) by a microdilution method following NCCLS guidelines (National Committee for Clinical Laboratory Standards. Methods for Dilution Antimicrobial Susceptibility). The pH of the test medium was 7.2-7.3.

[2] = system: S. Pneumoniae 49619; assay: MIC by microdilution (NCCLS) against S. Pneumoniae 49619; conditions: cation-adjusted Mueller-Hinton Broth, pH 7.2-7.3; for MIC: Streptococcus pneumoniae
Experimental: as §1

[3] = system: M. catarrhalis A894; assay: MIC by microdilution (NCCLS) against M. catarrhalis A894; conditions: pH 7.2-7.3; for MIC: Moraxella catarrhalis, A894, cation-adjusted Mueller-Hinton Broth
Experimental: as §1

[4] = cation-adjusted Mueller-Hinton Broth

MIC [1] | MIC [2] | MIC [3] | MIC S. aureus A798 [1, 4] | MIC S. Pneumoniae 49619 [2] | MIC M. catarrhalis A894 [3, 4] | Compound
1 µg/mL (≈ 2.03 µM) | 2 µg/mL (≈ 4.06 µM) | 0.25 µg/mL (≈ 0.508 µM) | – | – | – | COc1ccc2nccc(C(O)CN3CCC(C(=O)Nc4ccc5c(c4)NC(=O)CS5)CC3)c2c1 (racemic) [Example 12, (2RS)-1-[2-hydroxy-2-(6-methoxy-quinolin-4-yl)-ethyl]-piperidine-4-carboxylic acid (3-oxo-3,4-dihydro-2H-benzo[1,4]thiazin-6-yl)-amide]
0.06 µg/mL (≈ 0.134 µM) | 0.06 µg/mL (≈ 0.134 µM) | 0.5 µg/mL (≈ 1.11 µM) | – | – | – | COc1ccc2nccc(OC[C@H]3CC[C@H](C(=O)Nc4ccc5c(c4)OCCO5)CC3)c2c1 [Example 1, trans-4-(6-methoxy-quinolin-4-yloxymethyl)-cyclohexanecarboxylic acid (2,3-dihydro-benzo[1,4]dioxin-6-yl)-amide]
– | – | – | <0.03 µg/mL | 0.125 µg/mL (≈ 0.268 µM) | <0.03 µg/mL | COc1cnc2cccc(CCC3(O)CCC(C(=O)N/C=C/c4cc(F)ccc4F)CC3)c2c1 (stereo not drawn) [Example 26, trans-4-hydroxy-4-[2-(3-methoxy-quinolin-5-yl)-ethyl]-cyclohexanecarboxylic acid [2-(2,5-difluoro-phenyl)-vinyl]-amide]
1 µg/mL (≈ 2.09 µM) | 8 µg/mL (≈ 16.8 µM) | 8 µg/mL (≈ 16.8 µM) | – | – | – | COc1ccc2nccc(CCC3(O)CCC(C(=O)N(C)c4ccc5c(c4)OCCO5)CC3)c2n1 (stereo not drawn) [Example 39, 4-hydroxy-4-[2-(6-methoxy-[1,5]naphthyridin-4-yl)-ethyl]-cyclohexanecarboxylic acid (2,3-dihydro-benzo[1,4]dioxin-6-yl)-methyl-amide]
